In PubChem BioAssay AID1963985 (Molecular Pharmacology Branch, DTP, NCI, 2024):

Tested on: 252836-082-R-J2-PDC tumor spheroids, viability
Assay: Anticancer human tumor 252836-082-R-J2-PDC patient-derived head and neck squamous cell carcinoma cell line growth inhibition [PI3K]
Settings: spheroids with HUVEC and MSC; for IC50: curve of first compound; for viability, T/C: stronger effect = lower value
Summary of the method: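 High-throughput combination screen: PI3K inhibitors crossed with targeted small molecules on complex spheroids of tumor cells, HUVEC and MSCs at 37 degrees C, 5% CO2. Top concentration was at or near clinical Cmax (otherwise 10 microM), with half-log decrements.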

[1] = second compound 0.0316 µM, first compound 0.0316 µM
[2] = second compound 0.0316 µM, first compound 0.1 µM
[3] = second compound 0.1 µM, first compound 0.0316 µM
[4] = second compound 0.1 µM, first compound 0.1 µM
[5] = second compound 0.316 µM, first compound 0.0316 µM
[6] = second compound 0.316 µM, first compound 0.1 µM
[7] = second compound 1 µM, first compound 0.0316 µM
[8] = second compound 1 µM, first compound 0.1 µM
[9] = second compound 0.0316 µM, first compound 0.316 µM
[10] = second compound 0.0316 µM, first compound 1 µM
[11] = second compound 0.0316 µM, first compound 3.16 µM
[12] = second compound 0.0316 µM, first compound 10 µM
[13] = second compound 0.1 µM, first compound 0.316 µM
[14] = second compound 0.1 µM, first compound 1 µM
[15] = second compound 0.1 µM, first compound 3.16 µM
[16] = second compound 0.1 µM, first compound 10 µM
[17] = second compound 0.316 µM, first compound 0.316 µM
[18] = second compound 0.316 µM, first compound 1 µM
[19] = second compound 0.316 µM, first compound 3.16 µM
[20] = second compound 0.316 µM, first compound 10 µM
[21] = second compound 1 µM, first compound 0.316 µM
[22] = second compound 1 µM, first compound 1 µM
[23] = second compound 1 µM, first compound 3.16 µM
[24] = second compound 1 µM, first compound 10 µM
[25] = second compound 3.16 µM, first compound 0.0316 µM
[26] = second compound 3.16 µM, first compound 0.1 µM
[27] = second compound 3.16 µM, first compound 0.316 µM
[28] = second compound 3.16 µM, first compound 1 µM
[29] = second compound 3.16 µM, first compound 3.16 µM
[30] = second compound 3.16 µM, first compound 10 µM
[31] = second compound 10 µM, first compound 0.0316 µM
[32] = second compound 10 µM, first compound 0.1 µM
[33] = second compound 10 µM, first compound 0.316 µM
[34] = second compound 10 µM, first compound 1 µM
[35] = second compound 10 µM, first compound 3.16 µM
[36] = second compound 10 µM, first compound 10 µM
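Note: spheroids exposed to agents for seven days before readout.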
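Throughout, for viability, T/C: percent of vehicle DMSO control viability so 100% = untreated growth.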

## CC(=O)c1c(C)c2cnc(Nc3ccc(N4CCNCC4)cn3)nc2n(C2CCCC2)c1=O + CC(Nc1ccc2c(c1)OCCn1cc(N3C(=O)OCC3C(F)F)nc1-2)C(N)=O
Second compound 0.00316 µM
  IC50: > 0.1 µM
Second compound 0.01 µM
  IC50: > 0.1 µM
Second compound 0.0316 µM
  IC50: > 0.1 µM
Second compound 0.1 µM
  IC50: > 0.1 µM
Second compound 0.316 µM
  IC50: > 0.1 µM
Second compound 1 µM
  IC50: < 0.000316 µM
Second compound 0.00316 µM, first compound 0.000316 µM
  viability, T/C: 102%
Second compound 0.00316 µM, first compound 0.001 µM
  viability, T/C: 91.6%
Second compound 0.00316 µM, first compound 0.00316 µM
  viability, T/C: 94.5%
Second compound 0.00316 µM, first compound 0.01 µM
  viability, T/C: 89.8%
Second compound 0.00316 µM, first compound 0.0316 µM
  viability, T/C: 98.2%
Second compound 0.00316 µM, first compound 0.1 µM
  viability, T/C: 105%
Second compound 0.01 µM, first compound 0.000316 µM
  viability, T/C: 97.1%
Second compound 0.01 µM, first compound 0.001 µM
  viability, T/C: 84.9%
Second compound 0.01 µM, first compound 0.00316 µM
  viability, T/C: 93.7%
Second compound 0.01 µM, first compound 0.01 µM
  viability, T/C: 89.2%
Second compound 0.01 µM, first compound 0.0316 µM
  viability, T/C: 83.9%
Second compound 0.01 µM, first compound 0.1 µM
  viability, T/C: 87.9%
Second compound 0.0316 µM, first compound 0.000316 µM
  viability, T/C: 90.8%
Second compound 0.0316 µM, first compound 0.001 µM
  viability, T/C: 76.1%
Second compound 0.0316 µM, first compound 0.00316 µM
  viability, T/C: 74.1%
Second compound 0.0316 µM, first compound 0.01 µM
  viability, T/C: 70.7%
[1]
  viability, T/C: 81.4%
[2]
  viability, T/C: 82.4%
Second compound 0.1 µM, first compound 0.000316 µM
  viability, T/C: 68.8%
Second compound 0.1 µM, first compound 0.001 µM
  viability, T/C: 68.9%
Second compound 0.1 µM, first compound 0.00316 µM
  viability, T/C: 69.8%
Second compound 0.1 µM, first compound 0.01 µM
  viability, T/C: 70.8%
[3]
  viability, T/C: 66.5%
[4]
  viability, T/C: 67.5%
Second compound 0.316 µM, first compound 0.000316 µM
  viability, T/C: 54.9%
Second compound 0.316 µM, first compound 0.001 µM
  viability, T/C: 53.6%
Second compound 0.316 µM, first compound 0.00316 µM
  viability, T/C: 65.1%
Second compound 0.316 µM, first compound 0.01 µM
  viability, T/C: 50.7%
[5]
  viability, T/C: 62.2%
[6]
  viability, T/C: 55.7%
Second compound 1 µM, first compound 0.000316 µM
  viability, T/C: 47.5%
Second compound 1 µM, first compound 0.001 µM
  viability, T/C: 45.6%
Second compound 1 µM, first compound 0.00316 µM
  viability, T/C: 41.9%
Second compound 1 µM, first compound 0.01 µM
  viability, T/C: 42.4%
[7]
  viability, T/C: 44.9%
[8]
  viability, T/C: 45.1%

## CC(Cn1ccc(-c2ccc(C#N)c(Cl)c2)n1)NC(=O)c1cc(C(C)O)[nH]n1 (stereo unspecified) + CC(Nc1ncnc2nc[nH]c12)c1cc2cccc(Cl)c2c(=O)n1-c1ccccc1
Second compound 0.0316 µM
  IC50: > 10 µM
Second compound 0.1 µM
  IC50: > 10 µM
Second compound 0.316 µM
  IC50: > 10 µM
Second compound 1 µM
  IC50: > 10 µM
Second compound 3.16 µM
  IC50: > 10 µM
Second compound 10 µM
  IC50: > 10 µM
[1]
  viability, T/C: 105%
[2]
  viability, T/C: 78.9%
[9]
  viability, T/C: 96.6%
[10]
  viability, T/C: 87%
[11]
  viability, T/C: 81.7%
[12]
  viability, T/C: 76.3%
[3]
  viability, T/C: 86.8%
[4]
  viability, T/C: 89.3%
[13]
  viability, T/C: 82.6%
[14]
  viability, T/C: 83%
[15]
  viability, T/C: 94.5%
[16]
  viability, T/C: 70.2%
[5]
  viability, T/C: 83.2%
[6]
  viability, T/C: 78.5%
[17]
  viability, T/C: 88.9%
[18]
  viability, T/C: 88.8%
[19]
  viability, T/C: 85.5%
[20]
  viability, T/C: 85.9%
[7]
  viability, T/C: 92.2%
[8]
  viability, T/C: 76.3%
[21]
  viability, T/C: 89.6%
[22]
  viability, T/C: 80.5%
[23]
  viability, T/C: 77%
[24]
  viability, T/C: 70.3%
[25]
  viability, T/C: 74%
[26]
  viability, T/C: 73.7%
[27]
  viability, T/C: 79.2%
[28]
  viability, T/C: 72.5%
[29]
  viability, T/C: 75%
[30]
  viability, T/C: 74.2%
[31]
  viability, T/C: 60.9%
[32]
  viability, T/C: 55.3%
[33]
  viability, T/C: 73.4%
[34]
  viability, T/C: 55.4%
[35]
  viability, T/C: 65.4%
[36]
  viability, T/C: 56.8%

## CCCS(=O)(=O)Nc1ccc(F)c(C(=O)c2c[nH]c3ncc(-c4ccc(Cl)cc4)cc23)c1F + CC(Nc1ncnc2nc[nH]c12)c1cc2cccc(Cl)c2c(=O)n1-c1ccccc1
Second compound 0.0316 µM
  IC50: 5.06 µM
Second compound 0.1 µM
  IC50: 5.5 µM
Second compound 0.316 µM
  IC50: 5.32 µM
Second compound 1 µM
  IC50: 4.9 µM
Second compound 3.16 µM
  IC50: 4.83 µM
Second compound 10 µM
  IC50: 4.09 µM
[1]
  viability, T/C: 101%
[2]
  viability, T/C: 93.7%
[9]
  viability, T/C: 109%
[10]
  viability, T/C: 92.9%
[11]
  viability, T/C: 78.7%
[12]
  viability, T/C: 8.82%
[3]
  viability, T/C: 99.6%
[4]
  viability, T/C: 92.9%
[13]
  viability, T/C: 109%
[14]
  viability, T/C: 91.9%
[15]
  viability, T/C: 88.6%
[16]
  viability, T/C: 8.07%
[5]
  viability, T/C: 98.8%
[6]
  viability, T/C: 84%
[17]
  viability, T/C: 82.7%
[18]
  viability, T/C: 90.4%
[19]
  viability, T/C: 83.1%
[20]
  viability, T/C: 9.77%
[7]
  viability, T/C: 89.2%
[8]
  viability, T/C: 90.2%
[21]
  viability, T/C: 95.6%
[22]
  viability, T/C: 104%
[23]
  viability, T/C: 76.5%
[24]
  viability, T/C: 7.1%
[25]
  viability, T/C: 86.7%
[26]
  viability, T/C: 87.5%
[27]
  viability, T/C: 88.4%
[28]
  viability, T/C: 91.5%
[29]
  viability, T/C: 72.7%
[30]
  viability, T/C: 11.2%
[31]
  viability, T/C: 71.7%
[32]
  viability, T/C: 73.2%
[33]
  viability, T/C: 68.4%
[34]
  viability, T/C: 65%
[35]
  viability, T/C: 62.3%
[36]
  viability, T/C: 10.3%
